In data set [1] the test system is human peripheral blood mononuclear cells (PBMC). In words: IFN-α production by human PBMC (ELISA of culture supernatants). Format: cell-based. The conditions noted are these: human PBMC from three donors, 24 hours, oligonucleotide 0.001-4 μM, in the presence of DOTAP (20 μg/ml); FIG. 1 and FIG. 2. The protocol: (§1) Human peripheral blood mononuclear cells (PBMC) were isolated from three donors and incubated for 24 hours in the presence of various test or control oligonucleotides or control conditions, in either the presence or absence of DOTAP (20 μg/ml). Oligonucleotides were added at different concentrations ranging from 0.001-4 μM. Culture supernatants were then collected and then analyzed by separate enzyme-linked immunosorbent assays (ELISAs) specific for human interferon alpha (IFN-α) and tumor necrosis factor alpha (TNF-α).
(§2) Control oligonucleotides and conditions included R-1012, rU*rU*rU*rU*rU*rU*rU*rU, where * represents phosphorothioate linkage and rU represents uridine; R-1075 (SEQ ID NO:206, fully phosphorothioate backbone), R-1362, rU*rU*rG*rU*rU*rG*rU*rU*rG*rU*rU*rG*rU*rU*rG*rU*rU*rG*rU*rU (SEQ ID NO:331), where * again represents phosphorothioate linkage, rU again represents uridine, and rG represents guanosine; CpG oligodeoxynucleotide 2395, T*C*G*T*C*G*T*T*T*T*C*G*G*C*G*C*G*C*G*C*C*G (SEQ ID NO:330), lipopolysaccharide (LPS), DOTAP, and no additive (w/o).
(§3) Test oligonucleotides included the following modifications of R-1012: R-1907, rU*rU*rU*rU*rU*rU*rU*rU-teg, where teg represents triethylene glycol; R-1908, rU*rU*rU*rU*rU*rU*rU*5SrU-teg, where 5S represents a linkage according to Formula II wherein X is O, X^1 is SH, X^2 is O, and X^3 is S; R-1909, rU*rU*rU*rU*rU*5SrU*rU*5SrU-teg; R-1910, rU*rU*rU*5SrU*rU*5SrU*rU*5SrU-teg; and R-1911, rU*5SrU*rU*5SrU*rU*5SrU*rU*5SrU-teg.
(In general: An ELISA detects its analyte on a solid surface through an enzyme-linked reagent.)

For data set [2] the test system is unchanged. In words: TNF-α production by human PBMC (ELISA of culture supernatants). Particulars: human PBMC from three donors, 24 hours, oligonucleotide 0.001-4 μM, in the presence of DOTAP (20 μg/ml); FIG. 3 and FIG. 4. Format: cell-based. How it is done:
as §1, §2, §3

The nature of data set [3]: Stability against nuclease degradation in human serum (IP-RP-HPLC). Format: in vitro ADME. The protocol: Oligoribonucleotides R-1075 (SEQ ID NO:206), without triethylene glycol (teg) modification, and R-1907, with teg modification, were analysed using ion-pair reverse phase high pressure liquid chromatography (IP-RP-HPLC) following incubation in water or human serum for 1 to 60 minutes. While both of these oligoribonucleotides have fully phosphorothioate backbones, R-1075 is more than twice as long (18 nucleotides) as R-1907 (8 nucleotides). R-1075 incubated in water for 1 minute produced a single, sharp peak upon IP-RP-HPLC. […] R-1907 also produced a single, sharp peak following incubation in water for 1 minute. […] In fact, the peak height for R-1907 decreased by only about 50 percent following incubation in human serum for 60 minutes.

“Also recorded” adds a separate entry of the source. Where two headings read alike, the source gives them in different places. Oligonucleotides are written 5' to 3', each unit as a sugar letter and its base; * is a phosphorothioate linkage, no mark a phosphodiester; rarer units and linkages stand in square brackets, end groups in braces. Plain capitals give the bases only. r = 2'-OH (RNA)

Turning to rU*rU*rU*rU*rU*rU*rU*5SrU-teg [R-1908], in data set [1], the IFN-α production result is listed as “increase in IFN-α induction compared to R-1907”. Moreover, in data set [2], the TNF-α production result is reported as “significantly higher amounts of TNF-a compared to unmodified R-1012”.
In the case of rU*rU*rU*rU*rU*rU*rU*rU-teg [R-1907], in data set [3], the “IP-RP-HPLC peak of the oligoribonucleotide after incubation in human serum” value is listed as “persisted essentially unchanged” and the “decrease of IP-RP-HPLC peak height after incubation in human serum” value is “about 50%”. Besides, the IFN-α production result in data set [1] is on record as “reduced IFN-α production compared to unmodified R-1012”. In data set [2], the TNF-α production result is “enhanced TNF-α production compared to unmodified R-1012; also recorded: significantly higher amounts of TNF-a compared to unmodified R-1012”.
Consider “R-1075: control oligoribonucleotide, SEQ ID NO:206 (CCGUCUGUUGUGUGACUC), fully phosphorothioate backbone, 18 nucleotides, without teg modification (rC*rC*rG*rU*rC*rU*rG*rU*rU*rG*rU*rG*rU*rG*rA*rC*rU*rC) [reference compound]”, for which, in data set [3] (human serum, 1 minute, compared with incubation in water for 1 minute), the “IP-RP-HPLC peak of the oligoribonucleotide after incubation in human serum” value is listed as “essentially completely disappeared”.
Take “rU*rU*rU*5SrU*rU*5SrU*rU*5SrU-teg [R-1910]”: the IFN-α production entry in data set [1] is given as “did not induce significant amounts of IFN-α”. Moreover, in data set [2], the TNF-α production result was “significantly higher amounts of TNF-a compared to unmodified R-1012”.
In the same order, the values of “rU*rU*rU*rU*rU*5SrU*rU*5SrU-teg [R-1909]” are “increase in IFN-α induction compared to R-1907” and “significantly higher amounts of TNF-a compared to unmodified R-1012”.
“rU*5SrU*rU*5SrU*rU*5SrU*rU*5SrU-teg [R-1911]”: the IFN-α production result in data set [1] is “did not induce significant amounts of IFN-α”. Also, the TNF-α production result in data set [2] is given as “significantly higher amounts of TNF-a compared to unmodified R-1012”.
